Results as given in US11304930B2, “Ammonium salts of 3-(3,5-dibromo-4-hydroxybenzyliden)-5-indo-1,3-dihydroindol-2-one and uses thereof” (Metagone Biotech Inc., priority 2018, dated 2022).
Where two headings read alike, the source gives them in different places.

Columns and labels:
[1] = mouse, in vivo, 40 mg/kg
Description: (§1) B6 mice about 6-8 weeks of age (National laboratory animal center, Taipei, Taiwan) were used in the present study.
(§2) Pilot PK studies were carried out in mice.
(§3) Mice were fasting for 8 hrs before dosing. […] Blood samples were drawn from the tail vein at pre-designated time points. Each samples were extracted with 80% ethanol for 30 minutes and individually filtered through a 0.22 μm PVDF filter, then were subjected to HPLC-MS/MS.

SUN-1 cells = assay: MTS cell viability / proliferation assay; format: cell-based; settings: 72 hrs, in combination with sorafenib
Description: Gastric cancer cell line SUN-1 was purchased from the American Type Culture Collection (ATCC; Manassas, Va., USA) and were maintained in Roswell Park Memorial Institute-1640 (RPMI-1640) supplemented with 1.5 g/L sodium bicarbonate, 10% fetal bovine serum (FBS), 1.0% antibiotic-antimycotic, L-glutamine (2.0×10^−3 M), and 1.0% nonessential amino acids.
MTS cell proliferation assay kit (Abcam, Cambridge, UK) was used to evaluate cell viability. Briefly, SNU-1 cells were seeded in each well of a 96-well plate at the density of 8,000 cells/well and incubated overnight at 37° C. Cells were then treated with a test drug for 48 or 72 h at 37° C. Then, 20 μl MTS/well was added and incubated for 3 h at 37° C. Cell viability was measured by absorbance at 490 nm in a microplate reader.
To validate the bioactivity of the ammonium salts of GW5074 of Example 1, their effects on cell proliferation with or without the addition of another cell proliferation inhibitor-sorafenib, were investigated using MTS cell proliferation assay kit in accordance with the manufacturer's protocols. Results are illustrated FIGS. 1A and 1B.

[2] = Water solubility of GW5074 salts
[3] = Pilot pharmacokinetic study in mice; settings: single dose 40 mg/Kg, GW5074 measured in plasma; for AUC0-t: 0 to 24 hours
Description: as §1, §2, §3

Structure (SMILES)	AUC0-t [1] [ng·h/mL]	Cmax [1] [ng/mL]	T1/2 [1] [h]	Tmax [1] [h]	growth inhibition (SUN-1 cells)	Solubility [2] [mg/100 mL]	Cmax [3] [ng/mL]	T1/2 [3] [h]	Tmax [3] [h]	AUC0-t [3] [ng·h/mL]
O=C1Nc2ccc(I)cc2C1=Cc1cc(Br)c(O)c(Br)c1 [GW5074, 3-(3,5-dibromo-4-hydroxybenzyliden)-5-iodo-1,3-duhydroindol-2-one]	6127.9	4905.2	3.719	0.5	about 70%					
O=C1Nc2ccc(I)cc2C1=Cc1cc(Br)c([O-])c(Br)c1.[Na+] [MG-A1, Sodium Salts of GW5074]					about 70%					
CC(C)(N)CN.O=C1Nc2ccc(I)cc2C1=Cc1cc(Br)c(O)c(Br)c1 [MG-A2, 2-Amino-2-Methylpropylamine Salt of GW5075]					about 70%	0.19	6447.7	4.855	0.5	7936.2
O=C1Nc2ccc(I)cc2C1=Cc1cc(Br)c(O)c(Br)c1.OCCN(CCO)CCO [MG-A3, Triethanolamine Salt of GW5075]					about 70%		6844.6	4.364	0.5	8258.7
C1COCCN1.O=C1Nc2ccc(I)cc2C1=Cc1cc(Br)c(O)c(Br)c1 [Morpholine Salt of GW5075]						0.57				
